For 1 molecule, Ki, EC50 and Emax results are on record in patent US5519006A, “Phosphonated arylethanolamine compounds with anti-hyperglycemic and/or anti-obesity activity” (SmithKline Beecham plc, priority 1992, dated 1996).

The target in one test is T1, Rat β1 adrenoceptor (Rattus norvegicus, UniProt P18090).
T1 construct: Spontaneously beating right atria were removed; from tissue; host or cells: right atria of female Sprague-Dawley rats
Nature of the test: β1-Adrenoceptor agonism, increase in rate of spontaneously beating right atria. In kind it is cell-based, Rat (female Sprague-Dawley). Conditions: in vitro, 37° C., Krebs-Henseleit solution. The procedure:
(§1) Agonist Activity at Rat β1 and β2 Adrenoceptors In Vitro
Female Sprague-Dawley rats (150-250 g) were killed by a blow to the head and exsanguinated. Spontaneously beating right atria were removed by the method of Broadley and Lumley (1977) and mounted on a glass tissue holder. Each tissue was placed in 30 ml organ baths at 37° C. containing Kreb's-Henseleit solution. Each atrium was attached to an isometric transducer by cotton and placed under an initial resting tension of 1 g. Rate recordings from the spontaneous beating atria were obtained from the tension signal using a Lectromed Type 4522 ratemeter. All traces were recorded on a Lectromed M4 chart recorder. β-adrenoceptor agonists were then added to the Krebs medium in a cumulative fashion and the results expressed as a percentage increase in atrial rate.
(§2) Agonist EC50 (atria) and IC50 (uteri) were calculated as the concentration of agonist producing 50% of their maximum increase in atrial rate or uterine relaxation. Relative intrinsic activity expressed as the maximal responses to test agonists relative to isoprenaline (=1.0) in both atria and uteri.

A further test addresses T2, Rat β2 adrenoceptor (Rattus norvegicus, UniProt P10608).
T2 construct: Rat uterine horns were removed and bisected longitudinally; from tissue; host or cells: rat uterine horns (uterine strips)
Nature of the test: β2-Adrenoceptor agonism, inhibition of contraction of K+-pre-contracted uterine strips. In kind it is cell-based. The following applies: pre-contracted with 40 mM K+. As to the method: as §1
Rat uterine horns were removed and bisected longitudinally. Each tissue was tied to a glass tissue holder and placed in Krebs-Henseleit solution in a 30 ml organ bath as before. Tissues were placed under a resting tension of 1 g and allowed to equilibrate. Each uterine strip was pre-contracted by the addition of 40 mM K^+ to the bath to produced a steady tonic contraction. β-agonists were then added to the bath in a cumulative manner and results were expressed as percentage inhibition of contraction.
as §2

Another test relates to Rat white adipocytes. Nature of the test: Lipolysis stimulated in rat white adipocytes (glycerol release). In kind it is cell-based. Conditions: Adipocyte, 0.5 h, 30 minutes. The procedure:
Rat white adipocytes were prepared by collagenase digestion as described by Rodbell (1964) with the modification of Honnor et al. (1985), in that adenosine (200 nM) was included in the preparation to inhibit basal lipolysis.
Lipolysis stimulated by β-agonists was measured over 30 minutes in medium where the adenosine concentration was controlled; the medium included (-)-N^6 -(2-phenylisopropyl)adenosine (100 nM)+deaminase as decribed by Honnor et al. (1985). The incubation was stopped by addition of trichloracetic acid (0.2 ml of 10% w/v) to 1 ml of cells. Glycerol was measured by the fluorimetric method of Boobis and Maugham (1983).

SMILES strings stand for the structures.

T1 sequence (P18090 whole entry): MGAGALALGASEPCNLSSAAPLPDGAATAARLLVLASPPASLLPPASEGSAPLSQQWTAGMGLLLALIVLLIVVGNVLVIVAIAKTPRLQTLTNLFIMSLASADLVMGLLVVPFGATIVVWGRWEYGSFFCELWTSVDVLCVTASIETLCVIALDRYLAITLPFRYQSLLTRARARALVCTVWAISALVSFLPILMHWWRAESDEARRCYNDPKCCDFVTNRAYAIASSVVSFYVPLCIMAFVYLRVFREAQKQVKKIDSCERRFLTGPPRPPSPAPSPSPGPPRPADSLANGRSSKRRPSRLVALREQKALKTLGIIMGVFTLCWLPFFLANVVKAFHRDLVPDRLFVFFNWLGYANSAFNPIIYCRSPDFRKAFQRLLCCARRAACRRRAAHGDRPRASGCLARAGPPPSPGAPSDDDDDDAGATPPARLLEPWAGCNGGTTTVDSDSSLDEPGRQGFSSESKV
T2 sequence (P10608 whole entry): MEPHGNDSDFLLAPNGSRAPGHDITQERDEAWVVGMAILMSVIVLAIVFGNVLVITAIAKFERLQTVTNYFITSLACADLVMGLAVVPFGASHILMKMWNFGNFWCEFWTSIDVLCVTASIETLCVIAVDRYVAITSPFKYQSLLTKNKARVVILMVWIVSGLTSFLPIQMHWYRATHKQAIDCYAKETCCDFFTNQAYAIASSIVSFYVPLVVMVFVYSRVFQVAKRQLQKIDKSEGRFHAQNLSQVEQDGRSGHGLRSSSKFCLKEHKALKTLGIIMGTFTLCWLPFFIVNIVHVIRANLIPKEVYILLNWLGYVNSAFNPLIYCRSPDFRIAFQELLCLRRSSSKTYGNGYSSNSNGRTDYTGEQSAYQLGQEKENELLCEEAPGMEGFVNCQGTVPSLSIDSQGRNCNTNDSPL

In the case of `CCOP(=O)(O)COc1ccc(C[C@@H](C)NC[C@H](O)c2cccc(Cl)c2)cc1` (relative stereo) [Example 2, (RR,SS)-Sodium Ethyl 4-[2-[2-(3-chlorophenyl)-2-hydroxyethylamino]propyl]phenoxymethylphosphonate], the results for the inhibition constant (Ki) on Rat β1 adrenoceptor and on Rat β2 adrenoceptor were 37600 nM and 10000 nM, respectively. Moreover, the response in the test on Rat white adipocytes was half-maximal at 0.077 µM (EC50). Further, the Emax in the test with Rat white adipocytes (read-out: Intrinsic Activity) is 95%.

As a reminder, the Ki is the dissociation constant of the complex between target and ligand, obtained from inhibition or displacement. One may read the EC50 as the concentration that produces a half-maximal response. The low end stands for higher potency in that assay, the high end for lower potency in that assay.
